Measured values taken from patent publication US10633377B2, “Imidazole and thiazole compositions for modifying biological signaling” (Ohio University, priority 2014, dated 2020).
Read-outs that look alike come from different tables or passages of the source.

Assays:
IL-6 transcripts = assay: Inhibition of LPS induction of IL-6 transcripts in macrophages (rt-PCR); type: cell-based, Murine; details: for IC50: LPS-treated murine macrophages, mRNA transcripts by rt-PCR
Protocol: (§1) Murine macrophages were treated with LPS in the presence of various exemplary compounds described above. Subsequently, the cells were harvested and the transcripts for IL-6, iNOS, and INF-β quantified via rt-PCR. IC50 is the concentration of the compounds required to inhibit 50% of the mRNA transcripts induced by LPS. TC50 is the concentration of the compounds required to diminish the MTS signal by 50% (MTS signal correlates with cell metabolism/viability). Therapeutic Index (TI) is the ratio of TC50 to IC50.
(§2) In TABLE 4, data are provided that show effects of exemplary compounds described above on the inhibition of LPS induction of IL-6, iNOS, and INF-β transcripts in macrophages. The IL-6, iNOS, and INF-β transcripts are key mediators in a plethora of signaling networks that are involved in normal physiology and pathological processes. The mechanism by which LPS induces the IL-6, iNOS, and INF-β transcripts is via a network of signaling events. […] Data in TABLE 4 that was not calculatable is noted “NC.”

iNOS transcripts = assay: Inhibition of LPS induction of iNOS transcripts in macrophages (rt-PCR); type: cell-based; details: LPS-treated murine macrophages, mRNA transcripts by rt-PCR
Protocol: as §1, §2

INF-β transcripts = assay: Inhibition of LPS induction of INF-β transcripts in macrophages (rt-PCR); type: cell-based, Murine; details: for IC50: LPS-treated murine macrophages, mRNA transcripts by rt-PCR
Protocol: as §1, §2

Murine macrophages = assay: MTS signal (cell metabolism/viability); type: cell-based
Protocol: as §1

[1] = MTS signal (cell metabolism/viability); type: cell-based, Murine; details: mouse, murine macrophages; concentration required to diminish the MTS signal by 50%; read-out: Average TC50
Protocol: as §1

Compound | IC50 (IL-6 transcripts; Mus musculus, Macrophage) [µM] | IC50 (iNOS transcripts; Mus musculus, Macrophage) [µM] | IC50 (INF-β transcripts; Mus musculus, Macrophage) [µM] | CC50 [1] [µM] | further results
C=CCn1c(-c2ccccc2)csc1=S [COB-217] | – | – | – | – | IC50 (IL-6 transcripts): 8.2 µM; IC50 (iNOS transcripts): ~10 µM; IC50 (INF-β transcripts): ~10 µM; MTS signal decrease (Murine macrophages): 30%
CCCn1c(-c2cccnc2)csc1=S [COB-214] | 6 | 10.5 | – | 230 | –
COc1ccc(-c2csc(=S)n2Cc2cccnc2)cc1 [COB-206] | 10.5 | 54 | 30 | 120 | –
CCCN1C(=S)SCC1(O)c1ccc(Cl)c(Cl)c1 (stereo not drawn) [COB-210] | 16 | 2 | 3 | 45 | –
CCCn1c(-c2ccc(Cl)c(Cl)c2)csc1=S [COB-219] | 8.5 | ~20 | 16.5 | – | MTS signal decrease (Murine macrophages; 100 μM): 30%
COc1ccc(C2(O)CSC(=S)N2Cc2cccnc2)c(OC)c1 (stereo not drawn) [COB-199] | – | 2.2 | > 5 | 23 | –
COc1ccc(-c2c[nH]c(=S)n2C)cc1OC [COB-123] | 19 | 55 | 21 | – | –
CCCCCCn1c(-c2ccccc2)csc1=S [COB-218] | 9.5 | – | 10.5 | – | MTS signal decrease (Murine macrophages; 100 μM): 0%
CCCn1c(-c2cc(OC)ccc2OC)csc1=S [COB-220] | 5.5 | 3.75 | 12.2 | 60 | –
Cn1c(-c2cccc(Cl)c2)c[nH]c1=S [COB-119] | 45 | 60 | 46 | 390 | –
CCCn1c(-c2ccc(C#N)cc2)csc1=S [COR-216] | 8.1 | ~10 | ~10 | > 100 | –
COc1ccc(F)cc1C1(O)CSC(=S)N1Cc1cccnc1 (stereo not drawn) [COB-225] | 32.5 | 1 | 1 | 65 | –
S=c1scc(-c2ccccc2)n1CCc1ccccc1 [COB-177] | 8 | 32 | 13 | – | –
COc1ccc(OC)c(-c2c[nH]c(=S)n2C)c1 [COB-132] | 26 | 38 | 85 | 360 | –
CCCN1C(=S)SCC1(O)c1cccnc1 (stereo not drawn) [COR-207] | 12 | 2.7 | 2.1 | – | –
COc1ccc(-c2c[nH]c(=S)n2C)c(OC)c1 [COB-130] | 29 | 26 | 47 | – | –
COc1ccc(OC)c(-c2csc(=S)n2Cc2cccnc2)c1 [COB-203] | 19.5 | – | 8 | 270 | –
Cn1c(-c2ccc(OC(F)(F)F)cc2)c[nH]c1=S [COB-134] | 66 | 87 | 135 | – | –
OC1(c2ccccc2)CSC(=S)N1Cc1cccnc1 (stereo not drawn) [COB-152] | 4.25 | 0.156 | 0.156 | 18 | –
CCn1c(-c2cccc(Cl)c2)c[nH]c1=O [COB-125] | 31 | 43 | 36 | 500 | –
COc1cccc(-c2c[nH]c(=S)n2C)c1 [COB-117] | 30 | 36 | 22 | – | –
CCCn1c(-c2cccc([N+](=O)[O-])c2)csc1=S [COB-215] | 8.8 | ~10 | ~10 | ~100 | –
COc1ccc(-c2csc(=S)n2Cc2cccnc2)c(OC)c1 [COB-204] | 5 | 7 | 14 | 130 | –

Second part, led by results:

IC50 (IL-6 transcripts; Mus musculus, Macrophage) [µM] | IC50 (iNOS transcripts; Mus musculus, Macrophage) [µM] | IC50 (INF-β transcripts; Mus musculus, Macrophage) [µM] | Compound | CC50 [1] [µM] | further results
8.6 | 0.45 | 0.45 | Oc1ccc(Cl)cc1C1(O)CSC(=S)N1Cc1cccnc1 (stereo not drawn) [COB-222] | 15 | –
19 | 9.5 | 8 | OC1(c2ccccc2)CSC(=S)N1Cc1nc2ccccc2[nH]1 (stereo not drawn) [COB-183] | > 50 | –
– | 0.375 | 0.125 | OC1(c2ccccc2)CSC(=S)N1Cc1ccncc1 (stereo not drawn) [COB-187] | 15 | –
3.5 | 0.4 | 0.45 | Cc1ccccc1C1(O)CSC(=S)N1Cc1cccnc1 (stereo not drawn) [COB-224] | 13 | –
17 | 1.5 | 1.5 | OC1(c2ccccc2)CSC(=S)N1CCCc1ccccc1 (stereo not drawn) [COB-168] | 12 | –
– | 0.5 | 0.375 | Oc1cccc(C2(O)CSC(=S)N2Cc2ccccc2)c1 (stereo not drawn) [COB-196] | 17 | –
– | 3.4 | 3.6 | CCCCCCN1C(=S)SCC1(O)c1ccccc1 (stereo not drawn) [COB-212] | 54 | –
13 | 3 | 1 | COc1ccc(OC)c(C2(O)CSC(=S)N2Cc2ccccc2)c1 (stereo not drawn) [COB-143] | 23 | –
– | 0.25 | 0.25 | OC1(c2ccccc2)CSC(=S)N1Cc1ccc2[nH]ccc2c1 (stereo not drawn) [COB-188] | 13 | –
– | 2.2 | 4.4 | O=c1oc2ccccc2cc1C1(O)CSC(=S)N1Cc1cccnc1 (stereo not drawn) [COB-202] | 43 | –
> 10 | 1.8 | 1.5 | Oc1ccc(Cl)cc1C1(O)CSC(=S)N1Cc1ccccc1 (stereo not drawn) [COB-221] | 18 | –
– | 1.9 | – | OC1(c2ccccc2)CSC(=S)N1Cc1cccc(CN2C(=S)SCC2(O)c2ccccc2)c1 (stereo not drawn) [COB-186] | 4 | IL-6 inhibition printed in IC50 column (IL-6 transcripts; 0.03 μM-2 μM): <30%; INF-β inhibition printed in IC50 column (INF-β transcripts; 0.5 μM-2 μM): 40%
12.5 | 1.5 | 1.5 | OC1(c2cc(C(F)(F)F)ccc2Cl)CSC(=S)N1Cc1cccnc1 (stereo not drawn) [COB-226] | 33 | –
3.5 | 0.4 | 0.4 | Cc1ccc(C)c(C2(O)CSC(=S)N2Cc2cccnc2)c1 (stereo not drawn) [COB-223] | 14 | –
– | 0.5 | 0.4 | Oc1ccc(C2(O)CSC(=S)N2Cc2cccnc2)c(O)c1 (stereo not drawn) [COB-200] | 11 | –
– | 0.15 | 0.2 | Oc1cccc(C2(O)CSC(=S)N2Cc2cccnc2)c1 (stereo not drawn) [COB-198] | 17 | –
– | 0.45 | 1.25 | COc1ccc(C2(O)CSC(=S)N2Cc2cccnc2)cc1 (stereo not drawn) [COB-201] | 10 | –
– | 2.5 | 2.5 | COc1ccc(OC)c(C2(O)CSC(=S)N2Cc2cccnc2)c1 (stereo not drawn) [COB-197] | – | –
